target: T1, hGalectin-3 (Homo sapiens, UniProt P17931); assay: Gal-3 ELISA assay (hGalectin-3 neutralization binding to asialofetuin); conditions: Table 1; read-out: hGal-3 IC50
T1 construct: made in house
T1 sequence (P17931 whole entry): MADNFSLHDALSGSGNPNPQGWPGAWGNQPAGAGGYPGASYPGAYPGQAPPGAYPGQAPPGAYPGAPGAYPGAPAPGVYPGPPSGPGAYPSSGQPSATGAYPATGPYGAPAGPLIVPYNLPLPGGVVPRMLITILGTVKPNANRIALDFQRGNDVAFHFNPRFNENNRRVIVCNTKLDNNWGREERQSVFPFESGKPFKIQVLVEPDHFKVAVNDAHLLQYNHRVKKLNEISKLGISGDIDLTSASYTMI

First: O=C([C@@H]1O[C@H](CO)[C@H](O)[C@H](n2cc(-c3cccc(F)c3)nn2)[C@H]1O)N1CCN(c2ncc(O)cn2)CC1 [Example 4]
Second: O=C([C@@H]1O[C@H](CO)[C@H](O)[C@H](n2cc(-c3cccc(F)c3)nn2)[C@H]1O)N1CCN(c2ccc3[nH]ccc3c2)CC1 [Example 3]
The IC50 of the first is 1.8-fold higher: 850 nM for the first, 480 nM for the second.

`Cn1ccc2cc(N3CCN(C(=O)[C@@H]4O[C@H](CO)[C@H](O)[C@H](n5cc(-c6cccc(F)c6)nn5)[C@H]4O)CC3)ccc21` [Example 6] gave an IC50 of 420 nM.

same assay, conditions: Table 2; read-out: hGal-3 IC50

`CO[C@@H]1[C@@H](n2cc(-c3cccc(F)c3)nn2)[C@@H](O)[C@@H](CO)O[C@H]1C(=O)N1CCN(c2ccc3c(ccn3C)c2)CC1` [Example 14] and `COc1ccc(N2C[C@H]3C[C@@H]2CN3C(=O)[C@@H]2O[C@H](CO)[C@H](O)[C@H](n3cc(-c4cccc(F)c4)nn3)[C@H]2OC)cc1` [Example 16] are within 1.5-fold of each other in IC50: 410 nM for the first, 530 nM for the second.

`CO[C@@H]1[C@@H](n2cc(-c3cccc(F)c3)nn2)[C@@H](O)[C@@H](CO)O[C@H]1C(=O)N1C[C@H]2C[C@@H]1CN2c1ccc2c(c1)OCO2` [Example 17] gave an IC50 of 311 nM.

same assay, conditions: biotin-tagged hGalectin-3 15 nM, ASF-coated plate; read-out: hGal3 IC50

First: O=C([C@@H]1O[C@H](CO)[C@H](O)[C@H](n2cc(-c3cccc(F)c3)nn2)[C@H]1O)N1C[C@@H]2C[C@H]1CN2c1ccc2[nH]ccc2c1 [Example 26, ((1S,4S)-5-(1H-indol-5-yl)-2,5-diazabicyclo[2.2.1]heptan-2-yl)((2R,3R,4S,5R,6R)-4-(4-(3-fluorophenyl)-1H-1,2,3-triazol-1-yl)-3,5-dihydroxy-6-(hydroxymethyl)tetrahydro-2H-pyran-2-yl)methanone]
Second: O=C([C@@H]1O[C@H](CO)[C@H](O)[C@H](n2cc(-c3cccc(F)c3)nn2)[C@H]1O)N1C[C@@H]2C[C@H]1CN2c1ccc(O)cc1 [Example 25, ((2R,3R,4S,5R,6R)-4-(4-(3-fluorophenyl)-1H-1,2,3-triazol-1-yl)-3,5-dihydroxy-6-(hydroxymethyl)tetrahydro-2H-pyran-2-yl)((1S,4S)-5-(4-hydroxyphenyl)-2,5-diazabicyclo[2.2.1]heptan-2-yl)methanone]
The IC50 of the first is 3-fold lower: 300 nM for the first, 900 nM for the second.

Compared with `OCC1CN(C[C@@H]2O[C@H](CO)[C@H](O)[C@H](n3cc(-c4cccc(F)c4)nn3)[C@H]2O)CCN1c1ccc(O)cc1` (single isomer, unassigned) [Example 40b], `OCC1CN(c2ccc(O)cc2)CCN1C[C@@H]1O[C@H](CO)[C@H](O)[C@H](n2cc(-c3cccc(F)c3)nn2)[C@H]1O` (single isomer, unassigned) [Example 39b] is 4.1-fold lower in IC50: 1600 nM for the first, 390 nM for the second. The second is the more potent here.

First: O=C([C@@H]1O[C@H](CO)[C@H](O)[C@H](n2cc(-c3cccc(F)c3)nn2)[C@H]1O)N1CCN(c2ccc(O)cc2)C(CO)C1 (single isomer, unassigned) [Example 35b]
Second: O=C([C@@H]1O[C@H](CO)[C@H](O)[C@H](n2cc(-c3cccc(F)c3)nn2)[C@H]1O)N1CCN(c2ccc(O)cc2)CC1CO (single isomer, unassigned) [Example 34a]
The IC50 of the first is 9.3-fold lower: 140 nM for the first, 1300 nM for the second.

First: O=C([C@@H]1O[C@H](CO)[C@H](O)[C@H](n2cc(-c3cccc(F)c3)nn2)[C@H]1O)N1CCN(c2ccc(O)cc2)C(CO)C1 (single isomer, unassigned) [Example 35a]
Second: CC1CN(c2ccc(O)cc2)CCN1C(=O)[C@@H]1O[C@H](CO)[C@H](O)[C@H](n2cc(-c3cccc(F)c3)nn2)[C@H]1O (single isomer, unassigned) [Example 36]
The IC50 of the first is 3.2-fold higher: 1100 nM for the first, 340 nM for the second.

`O=C(Nc1ccc(O)cc1)N1C[C@@H]2C[C@H]1CN2C(=O)[C@@H]1O[C@H](CO)[C@H](O)[C@H](n2cc(-c3cccc(F)c3)nn2)[C@H]1O` [Example 30, (1S, 4S)-5-((2R, 3R, 4S, 5R, 6R)-4-(4-(3-fluorophenyl)-1H-1,2,3-triazol-1-yl)-3,5-dihydroxy-6-(hydroxymethyl)tetrahydro-2H-pyran-2-carbonyl)-N-(4-hydroxyphenyl)-2,5-diazabicyclo[2.2.1]heptane-2-carboxamide] and `CS(=O)(=O)Nc1ccc(N2C[C@@H]3C[C@H]2CN3C(=O)[C@@H]2O[C@H](CO)[C@H](O)[C@H](n3cc(-c4cccc(F)c4)nn3)[C@H]2O)cc1` [Example 24, N-(4-((1S,4S)-5-((2R,3R,4S,5R,6R)-4-(4-(3-fluorophenyl)-1H-1,2,3-triazol-1-yl)-3,5-dihydroxy-6-(hydroxymethyl)tetrahydro-2H-pyran-2-carbonyl)-2,5-diazabicyclo[2.2.1]heptan-2-yl)phenyl)methanesulfonamide] are within 1.5-fold of each other in IC50: 500 nM for the first, 680 nM for the second.

`C[C@@H]1CN(c2ccc(O)cc2)[C@@H](C)CN1C(=O)[C@@H]1O[C@H](CO)[C@H](O)[C@H](n2cc(-c3cccc(F)c3)nn2)[C@H]1O` (single isomer, unassigned) [Example 37b] and `COc1ccc(N2CC3CC2CN3C(=O)[C@@H]2O[C@H](CO)[C@H](O)[C@H](n3cc(-c4cccc(F)c4)nn3)[C@H]2O)cc1` (stereo in doubt) [Example 31, ((2R,3R,4S,5R,6R)-4-(4-(3-fluorophenyl)-1H-1,2,3-triazol-1-yl)-3,5-dihydroxy-6-(hydroxymethyl)tetrahydro-2H-pyran-2-yl)((1S,4S)-5-(4-methoxyphenyl)-2,5-diazabicyclo[2.2.1]heptan-2-yl)methanone] are within 1.5-fold of each other in IC50: 310 nM for the first, 220 nM for the second.

`COc1ccc(N2C[C@@H]3C[C@H]2CN3C[C@@H]2O[C@H](CO)[C@H](O)[C@H](n3cc(-c4cccc(F)c4)nn3)[C@H]2O)cc1` [Example 29, (2R,3R,4R,5R,6S)-4-(4-(3-fluorophenyl)-1H-1,2,3-triazol-1-yl)-2-(hydroxymethyl)-6-(((1S,4S)-5-(4-methoxyphenyl)-2,5-diazabicyclo[2.2.1]heptan-2-yl)methyl)tetrahydro-2H-pyran-3,5-diol] and `O=C([C@@H]1O[C@H](CO)[C@H](O)[C@H](n2cc(-c3cccc(F)c3)nn2)[C@H]1O)N1C[C@H]2C[C@@H]1CN2c1ccc2c(c1)OCO2` [Example 32] are within 1.5-fold of each other in IC50: 250 nM for the first, 180 nM for the second.

Going from `COc1ccc(N2CCN(C(=O)[C@@H]3O[C@H](CO)[C@H](O)[C@H](n4cc(-c5cccc(F)c5)nn4)[C@H]3OC)CC2)cc1` [Example 11, ((2R, 3R, 4S, 5R, 6R)-4-(4-(3-fluorophenyl)-1H-1,2,3-triazol-1-yl)-5-hydroxy-6-(hydroxymethyl)-3-methoxytetrahydro-2H-pyran-2-yl)(4-(4-methoxyphenyl)piperazin-1-yl) methanone] to `CO[C@@H]1[C@@H](n2cc(-c3cccc(F)c3)nn2)[C@@H](O)[C@@H](CO)O[C@H]1C(=O)N1CCN(c2ccc(O)cn2)CC1` [Example 12, ((2R, 3R, 4S, 5R, 6R)-4-(4-(3-fluorophenyl)-1H-1,2,3-triazol-1-yl)-5-hydroxy-6-(hydroxymethyl)-3-methoxytetrahydro-2H-pyran-2-yl)(4-(5-hydroxypyridin-2-yl)piperazin-1-yl) methanone], the IC50 rises from 300 nM to 470 nM (1.6-fold).

`Cc1ccc(N2C[C@H]3CN(C(=O)[C@@H]4O[C@H](CO)[C@H](O)[C@H](n5cc(-c6cccc(F)c6)nn5)[C@H]4O)C[C@H]3C2)cc1` [Example 38, ((2R,3R,4S,5R,6R)-4-(4-(3-fluorophenyl)-1H-1,2,3-triazol-1-yl)-3,5-dihydroxy-6-(hydroxymethyl)tetrahydro-2H-pyran-2-yl)((3aR,6aS)-5-(p-tolyl)hexahydropyrrolo[3,4-c]pyrrol-2(1H)-yl)methanone] was tested, and the IC50 was 400 nM.
